Reference: patent US4608373A, “Cephem compounds” (Yamanouchi Pharmaceutical Co., Ltd., priority 1982, dated 1986)
Converted amounts (≈) assume the structure as drawn. Like-named read-outs stand apart in the source and are kept apart here.

What was measured:
Assay type in all cases: cell-based
[1] = tested on: Staph. aureus ATCC 6538P; assay: Antibacterial activity (MIC), Staph. aureus ATCC 6538P; details: Staphylococcus aureus, ATCC6538P, read-out: MIC (minimum effective inhibitory concentration)
From the text: (§1) Antibacterial activities (minimum effective inhibitory concentrations) of the compounds of formula I are shown in the following table in comparison with those of cefatazidime having the structure [drawing 5] and cefmenoxime having the structure [drawing 6]

[2] = tested on: Staph. aureus Smith; assay: Antibacterial activity (MIC), Staph. aureus Smith; details: Staphylococcus aureus, read-out: MIC (minimum effective inhibitory concentration)
From the text: as §1

[3] = tested on: Staph. aureus Terashima; assay: Antibacterial activity (MIC), Staph. aureus Terashima; details: Staphylococcus aureus, read-out: MIC (minimum effective inhibitory concentration)
From the text: as §1

[4] = tested on: E. coli Ebara; assay: Antibacterial activity (MIC), E. coli Ebara; details: Escherichia coli, read-out: MIC (minimum effective inhibitory concentration)
From the text: as §1

[5] = tested on: Kleb. pneumoniae ATCC 10031; assay: Antibacterial activity (MIC), Kleb. pneumoniae ATCC 10031; details: Klebsiella pneumoniae, ATCC10031, read-out: MIC (minimum effective inhibitory concentration)
From the text: as §1

[6] = tested on: Proteus morgani IID 602; assay: Antibacterial activity (MIC), Proteus morgani IID 602; details: read-out: MIC (minimum effective inhibitory concentration)
From the text: as §1

[7] = tested on: Serr. marcescens IID 620; assay: Antibacterial activity (MIC), Serr. marcescens IID 620; details: Serratia marcescens
From the text: as §1

[8] = tested on: Ent. aerogenes ATCC 13048 (MS-1); assay: Antibacterial activity (MIC), Ent. aerogenes ATCC 13048 (MS-1); details: Klebsiella aerogenes, ATCC13048, read-out: MIC (minimum effective inhibitory concentration)
From the text: as §1

[9] = tested on: Ent. cloacae V-8; assay: Antibacterial activity (MIC), Ent. cloacae V-8; details: Enterobacter cloacae, V8, read-out: MIC (minimum effective inhibitory concentration)
From the text: as §1

[10] = tested on: Ps. aeruginosa NCTC 10490; assay: Antibacterial activity (MIC), Ps. aeruginosa NCTC 10490; details: Pseudomonas aeruginosa, NCTC10490, read-out: MIC (minimum effective inhibitory concentration)
From the text: as §1

[11] = tested on: Ps. aeruginosa IID 5142; assay: Antibacterial activity (MIC), Ps. aeruginosa IID 5142; details: Pseudomonas aeruginosa, IID5142, read-out: MIC (minimum effective inhibitory concentration)
From the text: as §1

[12] = IID620, Serr. marcescens IID 620, read-out: MIC (minimum effective inhibitory concentration)

| SMILES | MIC [1] | MIC [2] | MIC [3] | MIC ([4]; E. coli Ebara) | MIC [5] | MIC ([6]; Proteus morgani IID 602) | MIC [7, 12] | MIC [8] | MIC [9] | MIC [10] | MIC [11] | MIC [4] | MIC [6] | MIC ([7]; IID620, read-out: MIC (minimum effective inhibitory concentration)) |
| --- | --- | --- | --- | --- | --- | --- | --- | --- | --- | --- | --- | --- | --- | --- |
| CC1=C(C(=O)O)N2C(=O)C(NC(=O)/C(=N\OCc3csc(N)n3)c3csc(N)n3)[C@H]2SC1 (stereo partly drawn) [1(b), (Z)-7-{α-(2-amino-4-thiazolyl)-α-[(2-amino-4-thiazolyl)methoxyimino]acetamido}-3-methyl-3-cephem-4-carboxylic acid] | 3.13 µg/mL (≈ 6.32 µM) | 6.25 µg/mL (≈ 12.6 µM) | 12.5 µg/mL (≈ 25.2 µM) | 1.56 µg/mL (≈ 3.15 µM) | ≤ 0.2 µg/mL | 3.13 µg/mL (≈ 6.32 µM) | 1.56 µg/mL (≈ 3.15 µM) | 6.25 µg/mL (≈ 12.6 µM) | 6.25 µg/mL (≈ 12.6 µM) | 6.25 µg/mL (≈ 12.6 µM) |  |  |  |  |
| CC(=O)OCC1=C(C(=O)O)N2C(=O)C(NC(=O)/C(=N\OCc3csc(N)n3)c3csc(N)n3)[C@H]2SC1 (stereo partly drawn) [2(b), (Z)-7-{α-(2-amino-4-thiazolyl)-α-[(2-amino-4-thiazolyl)methoxyimino]acetamido}-3-acetoxymethyl-3-cephem-4-carboxylic acid] | 1.56 µg/mL (≈ 2.82 µM) | 1.56 µg/mL (≈ 2.82 µM) | 3.13 µg/mL (≈ 5.65 µM) | ≤ 0.2 µg/mL | ≤ 0.2 µg/mL | 0.39 µg/mL (≈ 0.704 µM) | 0.78 µg/mL (≈ 1.41 µM) | 1.56 µg/mL (≈ 2.82 µM) | 3.13 µg/mL (≈ 5.65 µM) | 0.39 µg/mL (≈ 0.704 µM) | 25 µg/mL (≈ 45.2 µM) |  |  |  |
| CSC1=C(C(=O)O)N2C(=O)C(NC(=O)/C(=N\OCc3csc(N)n3)c3csc(N)n3)[C@H]2SC1 (stereo partly drawn) [3(b), (Z)-7-{α-(2-amino-4-thiazolyl)-α-[(2-amino-4-thiazolyl)methoxyimino]acetamido}-3-methylthio-3-cephem-4-carboxylic acid] | 0.78 µg/mL (≈ 1.48 µM) | 0.78 µg/mL (≈ 1.48 µM) | 1.56 µg/mL (≈ 2.96 µM) | 3.13 µg/mL (≈ 5.93 µM) | ≤ 0.2 µg/mL | 1.56 µg/mL (≈ 2.96 µM) | 1.56 µg/mL (≈ 2.96 µM) | 6.25 µg/mL (≈ 11.8 µM) | 3.13 µg/mL (≈ 5.93 µM) | 1.56 µg/mL (≈ 2.96 µM) |  |  |  |  |
| CC(C)(O/N=C(\C(=O)N[C@@H]1C(=O)N2C(C(=O)[O-])=C(C[n+]3ccccc3)CS[C@H]12)c1csc(N)n1)C(=O)O [CD, Ceftazidime, reference compound] | 6.25 µg/mL (≈ 11.4 µM) | 6.25 µg/mL (≈ 11.4 µM) | 12.5 µg/mL (≈ 22.9 µM) |  | ≤ 0.2 µg/mL |  |  | 0.39 µg/mL (≈ 0.714 µM) | 1.56 µg/mL (≈ 2.85 µM) | 0.78 µg/mL (≈ 1.43 µM) | 1.56 µg/mL (≈ 2.85 µM) | ≤ 0.2 µg/mL | ≤ 0.2 µg/mL | ≤ 0.2 µg/mL |
| CO/N=C(\C(=O)N[C@@H]1C(=O)N2C(C(=O)O)=C(CSc3nnnn3C)CS[C@H]12)c1csc(N)n1 [CX, Cefmenoxime, reference compound] | 3.13 µg/mL (≈ 6.12 µM) | 6.25 µg/mL (≈ 12.2 µM) | 12.5 µg/mL (≈ 24.4 µM) | 0.2 µg/mL (≈ 0.391 µM) | ≤ 0.2 µg/mL | ≤ 0.2 µg/mL | 0.2 µg/mL (≈ 0.391 µM) |  | 3.13 µg/mL (≈ 6.12 µM) | 1.56 µg/mL (≈ 3.05 µM) | 100 µg/mL (≈ 195 µM) |  |  |  |
| Cn1nc(O)c(=O)nc1SCC1=C(C(=O)O)N2C(=O)C(NC(=O)/C(=N\OCc3csc(N)n3)c3csc(N)n3)[C@H]2SC1 (stereo partly drawn) [Example 5, (Z)-7-{α-(2-amino-4-thiazolyl)-α-[(2-amino-4-thiazolyl)methoxyimino]acetamido}-3-{[(2,5-dihydro-6-hydroxy-2-methyl-5-oxo-as-triazine-3-yl)thio]methyl}-3-cephem-4-carboxylic acid] | 3.13 µg/mL (≈ 4.8 µM) | 3.13 µg/mL (≈ 4.8 µM) | 12.5 µg/mL (≈ 19.2 µM) | ≤ 0.2 µg/mL | ≤ 0.2 µg/mL | 0.39 µg/mL (≈ 0.597 µM) | 0.78 µg/mL (≈ 1.19 µM) | 1.56 µg/mL (≈ 2.39 µM) | 1.56 µg/mL (≈ 2.39 µM) | 1.56 µg/mL (≈ 2.39 µM) | 12.5 µg/mL (≈ 19.2 µM) |  |  |  |
| Cn1nnnc1SCC1=C(C(=O)O)N2C(=O)C(NC(=O)/C(=N\OCc3csc(N)n3)c3csc(N)n3)C2SC1 (centres unmarked) [Example 6] | 0.78 µg/mL (≈ 1.28 µM) | 0.78 µg/mL (≈ 1.28 µM) | 1.56 µg/mL (≈ 2.56 µM) | ≤ 0.2 µg/mL | ≤ 0.2 µg/mL | 0.39 µg/mL (≈ 0.64 µM) | 0.39 µg/mL (≈ 0.64 µM) | 1.56 µg/mL (≈ 2.56 µM) | 1.56 µg/mL (≈ 2.56 µM) | ≤ 0.2 µg/mL | 12.5 µg/mL (≈ 20.5 µM) |  |  |  |
